Data reported in patent US20020137929A1, “1 - (3-heterocyclylphenyl) isothiourea, -isourea, -guanidine and -amidine herbicidal agents” (Intellectual Property Department, BASF Aktiengesellschaft, priority 1998, published 2002).

How the values were obtained:
SETVI (Foxtail, Green) [1] = experiment: Postemergence herbicidal evaluation; type: in vivo, Setaria viridis; settings: postemergence
How it was run: (§1)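 Seedlings grown about two weeks were sprayed at 40 psi with compound dispersed in 50/50 acetone/water plus 0.5% TWEEN 20, at about 0.0156 to 0.500 kg/ha. Plants were kept in the greenhouse and scored 4–5 weeks later on a 0–9 visual scale against untreated controls.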

ORYSAT (Rice, Tebonnet) = experiment: Postemergence herbicidal evaluation; type: in vivo, Oryza sativa, (L.) Tebonnet; settings: postemergence
How it was run: as §1

ZEAMX (Corn, Field) [2] = experiment: Postemergence herbicidal evaluation; type: in vivo, Zea mays; settings: postemergence
How it was run: as §1

ECHCG (Barnyardgrass) = experiment: Preemergence herbicidal evaluation; type: in vivo, Echinochloa crus-galli; settings: rated 4-5 weeks after treatment
How it was run: (§2)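 Rating at 4–5 wk post-spray on a 0–9 visual scale vs control. Application: aqueous acetone, ~0.0156–0.500 kg/ha, to soil surface after seeding, preemergence.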

SETVI (Foxtail, Green) [3] = experiment: Preemergence herbicidal evaluation; type: in vivo, Setaria viridis; settings: rated 4-5 weeks after treatment
How it was run: as §2

[4] = system: TRZAWR (Wheat, Winter, cv Riband); experiment: Preemergence herbicidal evaluation; type: in vivo, Triticum aestivum; settings: rated 4-5 weeks after treatment
How it was run: as §2

ZEAMX (Corn, Field) [5] = experiment: Preemergence herbicidal evaluation; type: in vivo, Zea mays; settings: rated 4-5 weeks after treatment
How it was run: as §2

[6] = system: ECHORC (Watergrass (Calif.)); experiment: Preemergence weed control under flooded paddy conditions; type: in vivo, Echinochloa oryzoides; settings: rated 3-4 weeks after treatment
How it was run: (§3)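 Flooded-pot preemergence screen with silt loam and seeds in the upper 0.5 cm. Dose about 0.0313 to 0.500 kg/ha, delivered into flood water; visual 0-9 score after 3 to 4 weeks.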

CYPIR (Rice Flatsedge) [7] = experiment: as above; type: in vivo, Cyperus iria; settings: rated 3-4 weeks after treatment
How it was run: as §3

CYPSE (Flatsedge) [8] = experiment: as above; type: in vivo, Cyperus serotinus; settings: rated 3-4 weeks after treatment
How it was run: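 Herbicidal effect is scored visually on a 0-9 scale against an untreated control, three to four weeks after compounds are pipetted into the flood water (1.5 to 3 cm deep) over seeds planted in silt loam at 0.5 cm depth. Rates: about 0.0313 to 0.500 kg/ha.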

[9] = system: ECHORC (Watergrass (Calif.)); experiment: Postemergence weed control under flooded paddy conditions; type: in vivo, Echinochloa oryzoides; settings: postemergence weeds, 3-4 weeks after treatment
How it was run: (§4)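 Weeds 3 to 5 cm tall and rice seedlings at the 1.5 to 2.5 leaf stage were flooded, with water held 1.5 to 3 cm above the soil. Compounds in 50/50 v/v aqueous/acetone went into the flood water at about 0.0313 to 0.500 kg/ha. Visual 0-9 ratings versus control were made 3 to 4 weeks later.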

CYPIR (Rice Flatsedge) [10] = experiment: as above; type: in vivo, Cyperus iria; settings: postemergence weeds, 3-4 weeks after treatment
How it was run: as §4

CYPSE (Flatsedge) [11] = experiment: as above; type: in vivo, Cyperus serotinus; settings: postemergence weeds, 3-4 weeks after treatment
How it was run: as §4

[12] = system: SAGPY (Arrowhead (Pygmaea)); experiment: as above; type: in vivo, Sagittaria pygmaea; settings: postemergence weeds, 3-4 weeks after treatment
How it was run: as §4

In the case of CCOC(=O)CN1C(=O)C(F)SC1=Nc1cc(-n2c(=O)cc(C(F)(F)F)n(C)c2=O)c(F)cc1Cl (stereo not drawn) [Compound 11, Ethyl 2-{{2-chloro-5-[3,6-dihydro-3-methyl-2,6-dioxo-4-(trifluoromethyl)-1(2H)-pyrimidinyl]-4-fluorophenyl}imino}-5-fluoro-4-oxo-3-thiazolidineacetate], the SETVI herbicidal rating (SETVI (Foxtail, Green) [1]; rate 0.0156 kg/ha) is reported as 0.0, the SETVI herbicidal rating (SETVI (Foxtail, Green) [1]; rate 0.0313 kg/ha) is reported as 0.0 and the SETVI herbicidal rating (SETVI (Foxtail, Green) [1]; rate 0.0625 kg/ha) is reported as 6.0. For the same compound, the SETVI herbicidal rating (SETVI (Foxtail, Green) [1]; rate 0.1250 kg/ha) was 9.0, the ORYSAT herbicidal rating (ORYSAT (Rice, Tebonnet); rate 0.0156 kg/ha) was 2.0 and the ORYSAT herbicidal rating (ORYSAT (Rice, Tebonnet); rate 0.0313 kg/ha) was 2.0. The ORYSAT herbicidal rating (ORYSAT (Rice, Tebonnet); rate 0.0625 kg/ha) was 3.0, the ORYSAT herbicidal rating (ORYSAT (Rice, Tebonnet); rate 0.1250 kg/ha) was 3.0 and the ZEAMX herbicidal rating (ZEAMX (Corn, Field) [2]; rate 0.0156 kg/ha) was 6.5. The ZEAMX herbicidal rating (ZEAMX (Corn, Field) [2]; rate 0.0313 kg/ha) was 6.5, the ZEAMX herbicidal rating (ZEAMX (Corn, Field) [2]; rate 0.0625 kg/ha) was 7.5 and the ZEAMX herbicidal rating (ZEAMX (Corn, Field) [2]; rate 0.1250 kg/ha) was 7.5. For the same compound, the “ECHCG preemergence herbicidal rating” value (ECHCG (Barnyardgrass); rate 0.0156 kg/ha) was 0.0, the “ECHCG preemergence herbicidal rating” value (ECHCG (Barnyardgrass); rate 0.0313 kg/ha) was 0.0 and the “ECHCG preemergence herbicidal rating” value (ECHCG (Barnyardgrass); rate 0.0625 kg/ha) was 0.0. For the same compound, the “ECHCG preemergence herbicidal rating” value (ECHCG (Barnyardgrass); rate 0.1250 kg/ha) was 3.5, the “ECHCG preemergence herbicidal rating” value (ECHCG (Barnyardgrass); rate 0.2500 kg/ha) was 7.0 and the “SETVI preemergence herbicidal rating” value (SETVI (Foxtail, Green) [3]; rate 0.0156 kg/ha) was 0.0. The “SETVI preemergence herbicidal rating” value (SETVI (Foxtail, Green) [3]; rate 0.0313 kg/ha) was 1.0, the “SETVI preemergence herbicidal rating” value (SETVI (Foxtail, Green) [3]; rate 0.0625 kg/ha) was 7.0 and the “SETVI preemergence herbicidal rating” value (SETVI (Foxtail, Green) [3]; rate 0.1250 kg/ha) was 7.5. For the same compound, the “SETVI preemergence herbicidal rating” value (SETVI (Foxtail, Green) [3]; rate 0.2500 kg/ha) was 9.0, the “TRZAWR preemergence herbicidal rating” value ([4]; rate 0.0156 kg/ha) was 0.0 and the “TRZAWR preemergence herbicidal rating” value ([4]; rate 0.0313 kg/ha) was 0.0. For the same compound, the “TRZAWR preemergence herbicidal rating” value ([4]; rate 0.0625 kg/ha) was 0.0, the “TRZAWR preemergence herbicidal rating” value ([4]; rate 0.1250 kg/ha) was 2.0 and the “TRZAWR preemergence herbicidal rating” value ([4]; rate 0.2500 kg/ha) was 5.0. The “ZEAMX preemergence herbicidal rating” value (ZEAMX (Corn, Field) [5]; rate 0.0156 kg/ha) was 0.0, the “ZEAMX preemergence herbicidal rating” value (ZEAMX (Corn, Field) [5]; rate 0.0313 kg/ha) was 0.5 and the “ZEAMX preemergence herbicidal rating” value (ZEAMX (Corn, Field) [5]; rate 0.0625 kg/ha) was 3.5. For the same compound, the “ZEAMX preemergence herbicidal rating” value (ZEAMX (Corn, Field) [5]; rate 0.1250 kg/ha) was 4.5, the “ZEAMX preemergence herbicidal rating” value (ZEAMX (Corn, Field) [5]; rate 0.2500 kg/ha) was 5.5 and the “Herbicidal rating ECHORC” value ([6]; 0.0313 kg/ha) was 1.0. The “Herbicidal rating ECHORC” value ([6]; 0.0625 kg/ha) was 2.0, the “Herbicidal rating ECHORC” value ([6]; 0.1250 kg/ha) was 2.0 and the “Herbicidal rating ECHORC” value ([6]; 0.2500 kg/ha) was 3.0. The “Herbicidal rating CYPIR” value (CYPIR (Rice Flatsedge) [7]; 0.0313 kg/ha) was 0.0, the “Herbicidal rating CYPIR” value (CYPIR (Rice Flatsedge) [7]; 0.0625 kg/ha) was 0.0 and the “Herbicidal rating CYPIR” value (CYPIR (Rice Flatsedge) [7]; 0.1250 kg/ha) was 0.0. The “Herbicidal rating CYPIR” value (CYPIR (Rice Flatsedge) [7]; 0.2500 kg/ha) was 0.0, the “Herbicidal rating CYPSE” value (CYPSE (Flatsedge) [8]; 0.0313 kg/ha) was 0.0 and the “Herbicidal rating CYPSE” value (CYPSE (Flatsedge) [8]; 0.0625 kg/ha) was 0.0. The “Herbicidal rating CYPSE” value (CYPSE (Flatsedge) [8]; 0.1250 kg/ha) was 0.0, the “Herbicidal rating CYPSE” value (CYPSE (Flatsedge) [8]; 0.2500 kg/ha) was 0.0 and the “Herbicidal rating ECHORC” value ([9]; rate 0.0313 kg/ha) was 1.0. For the same compound, the “Herbicidal rating ECHORC” value ([9]; rate 0.0625 kg/ha) was 2.0, the “Herbicidal rating ECHORC” value ([9]; rate 0.1250 kg/ha) was 2.0 and the “Herbicidal rating ECHORC” value ([9]; rate 0.2500 kg/ha) was 3.0. For the same compound, the “Herbicidal rating CYPIR” value (CYPIR (Rice Flatsedge) [10]; rate 0.0313 kg/ha) was 0.0, the “Herbicidal rating CYPIR” value (CYPIR (Rice Flatsedge) [10]; rate 0.0625 kg/ha) was 0.0 and the “Herbicidal rating CYPIR” value (CYPIR (Rice Flatsedge) [10]; rate 0.1250 kg/ha) was 0.0. The “Herbicidal rating CYPIR” value (CYPIR (Rice Flatsedge) [10]; rate 0.2500 kg/ha) was 0.0, the “Herbicidal rating CYPSE” value (CYPSE (Flatsedge) [11]; rate 0.0313 kg/ha) was 0.0 and the “Herbicidal rating CYPSE” value (CYPSE (Flatsedge) [11]; rate 0.0625 kg/ha) was 0.0. The “Herbicidal rating CYPSE” value (CYPSE (Flatsedge) [11]; rate 0.1250 kg/ha) was 0.0, the “Herbicidal rating CYPSE” value (CYPSE (Flatsedge) [11]; rate 0.2500 kg/ha) was 0.0 and the “Herbicidal rating SAGPY” value ([12]; rate 0.0313 kg/ha) was 0.0. For the same compound, the “Herbicidal rating SAGPY” value ([12]; rate 0.0625 kg/ha) was 0.0, the “Herbicidal rating SAGPY” value ([12]; rate 0.1250 kg/ha) was 0.0 and the “Herbicidal rating SAGPY” value ([12]; rate 0.2500 kg/ha) was 0.0.
